The conditions of series [1]: human gut metagenome, 24 h, 2 µM.
Series [2] in a line: The drug is tested on WLS-370 corresponding to human gut metagenome with ENA study accession number: PRJEB37062 and ENA sample accession number: ERS12561793 for biotransformation under anaerobic condition. The drug concentrations were measured over 9 timepoints collected between 0 and 24 hours of incubation by liquid-chromatography-coupled mass spectrometry (LC–MS). Particulars: 2 µM.

For series [3] the following is noted: human gut metagenome, 24 h, 2 µM. This is another data set of the same source.
A short description of series [4]: The drug is tested on WLS-039 corresponding to human gut metagenome with ENA study accession number: PRJEB37062 and ENA sample accession number: ERS12561746 for biotransformation under anaerobic condition. The drug concentrations were measured over 9 timepoints collected between 0 and 24 hours of incubation by liquid-chromatography-coupled mass spectrometry (LC–MS). The note with it: 2 µM.

For series [5] the following is noted: human gut metagenome, 24 h, 2 µM. The source holds these as a separate data set.
The conditions of series [6]: human gut metagenome, 24 h, 2 µM. The source holds these as a separate data set.
The conditions of series [7]: human gut metagenome, 24 h, 2 µM. This is another data set of the same source.
The conditions of series [8]: human gut metagenome, 24 h, 2 µM. This is another data set of the same source.
The conditions of series [9]: human gut metagenome, 24 h, 2 µM. The source holds these as a separate data set.
The conditions of series [10]: human gut metagenome, 24 h, 2 µM. The source holds these as a separate data set.
Series [11] is described as follows: The drug is tested on WLS-310 corresponding to human gut metagenome with ENA study accession number: PRJEB37062 and ENA sample accession number: ERS12561785 for biotransformation under anaerobic condition. The drug concentrations were measured over 9 timepoints collected between 0 and 24 hours of incubation by liquid-chromatography-coupled mass spectrometry (LC–MS). Particulars: 2 µM.

For series [12] the following is noted: human gut metagenome, 24 h, 2 µM. The source holds these as a separate data set.
Series [13] can be described thus: The drug is tested on WLS-010 corresponding to human gut metagenome with ENA study accession number: PRJEB37062 and ENA sample accession number: ERS12561743 for biotransformation under anaerobic condition. The drug concentrations were measured over 9 timepoints collected between 0 and 24 hours of incubation by liquid-chromatography-coupled mass spectrometry (LC–MS). The note with it: 2 µM.

A short description of series [14]: The drug is tested on WLS-069 corresponding to human gut metagenome with ENA study accession number: PRJEB37062 and ENA sample accession number: ERS12561748 for biotransformation under anaerobic condition. The drug concentrations were measured over 9 timepoints collected between 0 and 24 hours of incubation by liquid-chromatography-coupled mass spectrometry (LC–MS). The note with it: 2 µM.

Series [15] in a line: The drug is tested on Z-022 corresponding to mouse gut metagenome with ENA study accession number: PRJEB37062 and ENA sample accession number: ERS12561821 for biotransformation under anaerobic condition. The drug concentrations were measured over 9 timepoints collected between 0 and 24 hours of incubation by liquid-chromatography-coupled mass spectrometry (LC–MS). The note with it: 2 µM.

Series [16] is described as follows: The drug is tested on WLS-038 corresponding to human gut metagenome with ENA study accession number: PRJEB37062 and ENA sample accession number: ERS12561745 for biotransformation under anaerobic condition. The drug concentrations were measured over 9 timepoints collected between 0 and 24 hours of incubation by liquid-chromatography-coupled mass spectrometry (LC–MS). The note with it: 2 µM.

The conditions of series [17]: human gut metagenome, 24 h, 2 µM. This is another data set of the same source.
The nature of series [18]: The drug is tested on WLS-350 corresponding to human gut metagenome with ENA study accession number: PRJEB37062 and ENA sample accession number: ERS12561789 for biotransformation under anaerobic condition. The drug concentrations were measured over 9 timepoints collected between 0 and 24 hours of incubation by liquid-chromatography-coupled mass spectrometry (LC–MS). Particulars: 2 µM.

Series [19] in a line: The drug is tested on Z-005 corresponding to metagenome with ENA study accession number: PRJEB37062 and ENA sample accession number: ERS12561805 for biotransformation under anaerobic condition. The drug concentrations were measured over 9 timepoints collected between 0 and 24 hours of incubation by liquid-chromatography-coupled mass spectrometry (LC–MS). The note with it: 2 µM.

For series [20] the following is noted: human gut metagenome, 24 h, 2 µM. This is another data set of the same source.

The source of these data is ChEMBL document CHEMBL5724914, “Linking interpersonal differences in gut microbiota composition and drug biotransformation activity” (2024).
Also: call rule not given here.

As for `CN1CCN(C2=Nc3cc(Cl)ccc3Nc3ccccc32)CC1` [CLOZAPINE], the “Bacterial Biotransformation” value in series [1] is “Compound metabolized”; in series [2], “Compound metabolized”; in series [3] it was “Compound NOT metabolized”; in [4], “Compound metabolized”; in series [5], “Compound NOT metabolized”; in series [6] it was “Compound NOT metabolized”. Besides, the “Bacterial Biotransformation” value in series [7] is recorded as “Compound metabolized”; in [8], “Compound metabolized”; in [9], “Compound NOT metabolized”; in series [10], “Compound NOT metabolized”; in series [11], “Compound metabolized”; in series [12] it was “Compound metabolized”. Moreover, the “Bacterial Biotransformation” value in series [13] was “Compound NOT metabolized”; in series [14], “Compound NOT metabolized”; in [15] it was “Compound NOT metabolized”; in series [16], “Compound NOT metabolized”; in [17], “Compound metabolized”; in series [18], “Compound metabolized”. In addition, the “Bacterial Biotransformation” value in series [19] and in series [20] was “Compound NOT metabolized” each time.

On to `COc1cc2c(c(OC)c1OC)-c1ccc(OC)c(=O)cc1[C@@H](NC(C)=O)CC2` [COLCHICINE], for which the “Bacterial Biotransformation” value in series [1] is given as “Compound NOT metabolized”; in series [2] it was “Compound NOT metabolized”; in series [3] it was “Compound metabolized”; in series [4], “Compound metabolized”; in [5] it was “Compound NOT metabolized”; in [6], “Compound NOT metabolized”. Also, the “Bacterial Biotransformation” value in [7] is “Compound metabolized”; in series [8], “Compound metabolized”; in series [9], “Compound metabolized”; in series [10], “Compound NOT metabolized”; in series [11], “Compound metabolized”; in series [12] it was “Compound metabolized”. Further, the “Bacterial Biotransformation” value in [13] is on record as “Compound metabolized”; in [14], “Compound metabolized”; in series [15] it was “Compound metabolized”; in series [16] it was “Compound NOT metabolized”; in series [17], “Compound metabolized”; in series [18], “Compound NOT metabolized”. Moreover, the “Bacterial Biotransformation” value in series [19] and in series [20] was “Compound metabolized” each time.

`CC(=O)OCC(=O)[C@@]12N=C(C)O[C@@H]1C[C@H]1[C@@H]3CCC4=CC(=O)C=C[C@]4(C)[C@H]3[C@@H](O)C[C@@]12C` [DEFLAZACORT]: the “Bacterial Biotransformation” value in series [1], in [2], in series [3], in series [4], in series [5] and in series [6] was “Compound metabolized” each time. For the same compound, the “Bacterial Biotransformation” value in [7], in series [8], in series [9], in series [10], in series [11] and in series [12] was “Compound metabolized” throughout. In addition, the “Bacterial Biotransformation” value in [13], in series [14], in [15], in [16], in series [17] and in [18] was “Compound metabolized” each time. For the same compound, the “Bacterial Biotransformation” value in series [19] and in [20] was “Compound metabolized” each time.

Turning to `CN(C)CC(c1ccc(O)cc1)C1(O)CCCCC1.O=C(O)CCC(=O)O` (stereo not given) [DESVENLAFAXINE SUCCINATE], the “Bacterial Biotransformation” value in [1], in [2], in series [3], in [4], in [5] and in series [6] was “Compound NOT metabolized” throughout. The “Bacterial Biotransformation” value in series [7], in series [8], in series [9], in [10], in [11] and in series [12] was “Compound NOT metabolized” each time. The “Bacterial Biotransformation” value in [13], in [14], in series [15], in series [16], in [17] and in [18] was “Compound NOT metabolized” in each case. In addition, the “Bacterial Biotransformation” value in series [19] and in [20] was “Compound NOT metabolized” in each case.

Take `CN1CCN(C(=O)O[C@H]2c3nccnc3C(=O)N2c2ccc(Cl)cn2)CC1` [ESZOPICLONE]: the “Bacterial Biotransformation” value in [1], in series [2], in [3], in series [4], in [5] and in series [6] was “Compound NOT metabolized” in each case. The “Bacterial Biotransformation” value in series [7], in [8], in [9], in [10], in [11] and in [12] was “Compound NOT metabolized” throughout. Also, the “Bacterial Biotransformation” value in [13], in series [14], in series [15], in series [16], in [17] and in [18] was “Compound NOT metabolized” throughout. The “Bacterial Biotransformation” value in [19] and in series [20] was “Compound NOT metabolized” in each case.

As to `O=C1[C@H](CC[C@H](O)c2ccc(F)cc2)[C@@H](c2ccc(O)cc2)N1c1ccc(F)cc1` [EZETIMIBE], the “Bacterial Biotransformation” value was “Compound metabolized” in series [1]; “Compound metabolized” in [2]; “Compound NOT metabolized” in [3]; “Compound NOT metabolized” in series [4]; “Compound metabolized” in [5]; “Compound NOT metabolized” in series [6]. The “Bacterial Biotransformation” value is “Compound NOT metabolized” in [7]; “Compound metabolized” in [8]; “Compound NOT metabolized” in series [9]; “Compound NOT metabolized” in [10]; “Compound NOT metabolized” in [11]; “Compound NOT metabolized” in [12]. Also, the “Bacterial Biotransformation” value in series [13] is on record as “Compound metabolized”; in series [14], “Compound metabolized”; in series [15], “Compound NOT metabolized”; in series [16], “Compound NOT metabolized”; in series [17], “Compound NOT metabolized”; in [18], “Compound NOT metabolized”. Further, the “Bacterial Biotransformation” value in series [19] and in series [20] was “Compound NOT metabolized” in each case.
